Laboratory results taken from US7351690B2, “Knockout identification of target-specific sites in peptides” (priority 2000, dated 2008).
Square brackets hold non-standard residues; d marks the D form. Primed or numbered codes have the meaning given here. Ends that are not written are not given here. Nle = CCCC[C@H](N)C(=O)O; dH′ = not defined here

System: bombesin receptor
Assay: competitive binding assay, 125I-Bombesin, rat brain membranes
Conditions: for % Inhibition: inhibition of 0.01 nM 125I-Bombesin binding, rat brain membranes, test concentration not given
Method: Rat brain membranes were utilized as the source of bombesin receptor. The competitive binding assay was performed using a procedure as described by Moody T W, Perk C B, Rivier J, Brown, M R. (Proc Natl Acad Sci USA. 75:5372-5376, […]) and adapted to a 96 well format. An aliquot of membranes taken in assay buffer (50 mM Tris and HCl, pH 7.4 containing 1 mg/mL BSA and 2 μg/mL bacitracin) was incubated with 0.01 nM of ^125I-Bombesin with or without varying concentrations of the test compound for 60 min at 4° C. The incubation was terminated by rapid filtration of the assay mixture, followed by washing the filters with ice-cold buffer. The filters were dried and counted in a gamma counter for retained radioactivity. Non-specific binding was measured by including 1 μM Bombesin in the assay tube. The assay was performed in triplicate and results calculated to determine percentage inhibition of the ^125I-Bombesin binding to its receptors by a test compound. The parent polypeptide is shown in Table 6, with metallopeptides having Cys inserted as shown.

Substance	% Inhibition [%]	binding to bombesin receptor, in words
Ac-Ala-Gln-Cys-Arg-Leu-Gly-Asn-Gln-Trp-Ala-Val-Gly-His-Leu-Nle-NH2 (Ac-AQCRLGNQWAVGHL[Nle]-NH2; also: oxorhenium(V) N3S1 tetradentate complex via Cys) [6-13]	99	–
Ac-Ala-Gln-Cys-Leu-Gly-Asn-Gln-Trp-Ala-Val-Gly-His-Leu-Nle-NH2 (Ac-AQCLGNQWAVGHL[Nle]-NH2; also: oxorhenium(V) N3S1 tetradentate complex via Cys) [7-12]	96	–
Ala-Val-Cys-His-Leu-Leu-NH2 (AVCHLL-NH2; not fully specified (bridges); printed as Ala-Val-Cys-His-Leu-Leu-NH2; also: oxorhenium(V) N3S1 chelate (Re(V)=O)) [11-6]	6	–
Ala-Val-Cys-His-Leu-NH2 (AVCHL-NH2; not fully specified (bridges); printed as Ala-Val-Cys-His-Leu-NH2; also: oxorhenium(V) N3S1 chelate (Re(V)=O)) [11-9]	7	–
Ala-Val-Cys-His-NH2 (AVCH-NH2; not fully specified (bridges); printed as Ala-Val-Cys-His-NH2; also: oxorhenium(V) N3S1 chelate (Re(V)=O)) [11-12]	5	–
Ala-Val-Cys-NH2 (not fully specified (bridges); printed as Ala-Val-Cys-NH2; also: oxorhenium(V) N3S1 chelate (Re(V)=O)) [11-15]	4	–
D-Phe-Gln-Cys-Ala-Val-Gly-His-Leu-Leu-NH2 ([dF]QCAVGHLL-NH2; also: oxorhenium(V) N3S1 tetradentate complex via Cys) [9-7]	19	least activity
D-Phe-Gln-Cys-Trp-Ala-Val-Gly-His-Leu-Leu-NH2 ([dF]QCWAVGHLL-NH2; also: oxorhenium(V) N3S1 tetradentate complex via Cys) [8-8]	62	–
D-Phe-Gln-D-Trp-Ala-Val-Cys-His-Leu-Leu-NH2 ([dF]Q[dW]AVCHLL-NH2; numbers in words are those of the source; also: oxorhenium(V) N3S1 tetradentate complex via Cys) [10-5]	6	–
D-Phe-Gln-Trp-Ala-Cys-Gly-His-Leu-Leu-NH2 ([dF]QWACGHLL-NH2; also: oxorhenium(V) N3S1 tetradentate complex via Cys) [9-5]	17	least activity
D-Phe-Gln-Trp-Ala-Cys-Val-Gly-His-Leu-Leu-NH2 ([dF]QWACVGHLL-NH2; also: oxorhenium(V) N3S1 chelate via Cys (Re(V)=O)) [8-6]	35	least activity
D-Phe-Gln-Trp-Ala-Cys-Val-His-Leu-Leu-NH2 ([dF]QWACVHLL-NH2; also: rhenium complex (oxorhenium(V) N3S1 chelate via Cys)) [12-2]	3	–
D-Phe-Gln-Trp-Ala-Val-Cys-D-His-Leu-Leu-NH2 ([dF]QWAVC[dH′]LL-NH2; also: oxorhenium(V) N3S1 chelate via Cys (Re(V)=O)) [10-1]	10	–
D-Phe-Gln-Trp-Ala-Val-Cys-Gly-His-Leu-Leu-NH2 ([dF]QWAVCGHLL-NH2; also: oxorhenium(V) N3S1 chelate via Cys (Re(V)=O)) [8-5]	70	–
D-Phe-Gln-Trp-Ala-Val-Cys-His-Leu-Leu-NH2 ([dF]QWAVCHLL-NH2; also: Re metal complex (oxorhenium(V) N3S1 chelate via Cys)) [9-4]	75	–
D-Phe-Gln-Trp-Ala-Val-Cys-His-Leu-NH2 ([dF]QWAVCHL-NH2; also: oxorhenium(V) N3S1 chelate via Cys (Re(V)=O)) [11-1]	98	–
D-Phe-Gln-Trp-Ala-Val-Cys-His-NH2 ([dF]QWAVCH-NH2; also: oxorhenium(V) N3S1 chelate via Cys (Re(V)=O)) [11-2]	25	–
D-Phe-Gln-Trp-Ala-Val-Cys-NH2 ([dF]QWAVC-NH2; also: oxorhenium(V) N3S1 chelate via Cys (Re(V)=O)) [11-3]	−81	high negative percent inhibition
D-Phe-Gln-Trp-Ala-Val-D-Cys-His-Leu-Leu-NH2 (chain 1 [dF]QWAV; chain 2 [dC]HLL-NH2; not fully specified (bridges); also: chain 2 continues chain 1 in one peptide (Val-D-Cys bond), Re-peptide (rhenium complex)) [10-2]	64	–

Substance	% Inhibition [%]	binding to bombesin receptor, in words
D-Phe-Gln-Trp-Ala-Val-Gly-Cys-His-Leu-Leu-NH2 ([dF]QWAVGCHLL-NH2; also: oxorhenium(V) N3S1 chelate via Cys (Re(V)=O)) [8-4]	59	–
D-Phe-Gln-Trp-Ala-Val-Gly-Cys-Leu-Leu-NH2 ([dF]QWAVGCLL-NH2; also: oxorhenium(V) N3S1 chelate via Cys (Re(V)=O)) [9-3]	70	–
D-Phe-Gln-Trp-Ala-Val-Gly-His-Cys-Leu-Leu-NH2 ([dF]QWAVGHCLL-NH2; also: rhenium complex (oxorhenium(V) N3S1 chelate via Cys)) [8-3]	49	–
D-Phe-Gln-Trp-Ala-Val-Gly-His-Cys-Leu-NH2 ([dF]QWAVGHCL-NH2; also: rhenium complex (oxorhenium(V) N3S1 chelate via Cys)) [9-2]	35	–
D-Phe-Gln-Trp-Ala-Val-Gly-His-Leu-Cys-Leu-NH2 ([dF]QWAVGHLCL-NH2; also: rhenium complex (oxorhenium(V) N3S1 chelate via Cys)) [8-2]	75	–
D-Phe-Gln-Trp-Ala-Val-Gly-His-Leu-Cys-NH2 ([dF]QWAVGHLC-NH2; also: rhenium complex (oxorhenium(V) N3S1 chelate via Cys)) [9-1]	86	–
D-Phe-Gln-Trp-Ala-Val-Gly-His-Leu-Leu-Cys-NH2 ([dF]QWAVGHLLC-NH2; also: rhenium complex (oxorhenium(V) N3S1 chelate via Cys)) [8-1]	39	–
D-Phe-Gln-Trp-Cys-Ala-Val-Gly-His-Leu-Leu-NH2 ([dF]QWCAVGHLL-NH2; also: rhenium complex (oxorhenium(V) N3S1 chelate via Cys)) [8-7]	8	least activity
D-Phe-Gln-Trp-Cys-Val-Gly-His-Leu-Leu-NH2 ([dF]QWCVGHLL-NH2; also: oxorhenium(V) N3S1 chelate complex (Re=O)) [9-6]	43	–
D-Phe-Gln-Trp-Cys-Val-His-Leu-Leu-NH2 ([dF]QWCVHLL-NH2; not fully specified (bridges); printed as D-Phe-Gln-Trp-Cys-Val-His-Leu-Leu-NH2; also: oxorhenium(V) N3S1 chelate complex (Re=O)) [12-6]	10	–
D-Phe-Gln-Trp-D-Ala-Val-Cys-His-Leu-Leu-NH2 ([dF]QW[dA]VCHLL-NH2; numbers in words are those of the source; also: oxorhenium(V) N3S1 chelate complex (Re=O)) [10-4]	2	–
D-Phe-Gln-Trp-Val-Cys-Gly-His-Leu-Leu-NH2 ([dF]QWVCGHLL-NH2; also: oxorhenium(V) N3S1 chelate complex (Re=O)) [12-1]	2	–
D-Phe-Gln-Trp-Val-Cys-His-Leu-Leu-NH2 ([dF]QWVCHLL-NH2; also: oxorhenium(V) N3S1 chelate complex (Re=O)) [12-4]	5	–
D-Phe-Gln-Trp-Val-Cys-Val-His-Leu-Leu-NH2 ([dF]QWVCVHLL-NH2; not fully specified (bridges); printed as D-Phe-Gln-Trp-Val-Cys-Val-His-Leu-Leu-NH2; also: oxorhenium(V) N3S1 chelate complex (Re=O)) [12-3]	14	–
Gln-Trp-Ala-Val-Cys-His-Leu-Leu-NH2 [11-4] (QWAVCHLL-NH2; not fully specified (bridges); printed as Gln-Trp-Ala-Val-Cys-His-Leu-Leu-NH2; also: oxorhenium(V) N3S1 chelate (Re(V)=O))	25	–
Gln-Trp-Ala-Val-Cys-His-Leu-Leu-NH2 [11-7] (QWAVCHLL-NH2; not fully specified (bridges); printed as Gln-Trp-Ala-Val-Cys-His-Leu-Leu-NH2; also: oxorhenium(V) N3S1 chelate (Re(V)=O))	5	–
Gln-Trp-Ala-Val-Cys-NH2 (QWAVC-NH2; not fully specified (bridges); printed as Gln-Trp-Ala-Val-Cys-NH2; also: oxorhenium(V) N3S1 chelate (Re(V)=O)) [11-13]	−50	high negative percent inhibition
Pyr-Gln-Arg-Cys-Gly-Asn-Gln-Trp-Ala-Val-Gly-His-Leu-Nle-NH2 (QRCGNQWAVGHL; N-term pyroglutamate; Nle-NH2; rhenium complex; printed: Gln-Arg-Cys-Gly-Asn-Gln-Trp-Ala-Val-Gly-His-Leu-) [7-11]	95	–
